Measured values reported in patent US7576226B2, “Process of making isomers of norelgestromin and methods using the same” (priority 2003, dated 2009).
Values after ≈ are worked out from the molar mass of the structure shown.

How the values were obtained:
[1] = Equilibrium solubility in distilled water (UV spectrophotometry); type: physicochemical; conditions: thermodynamic from solid, room temperature
Experimental: The determination of equilibrium solubility of E and Z isomers of norelgestromin was carried out in distilled water. 20 mg of norelgestromin was added to 20 mL of distilled water at room temperature. The suspension was stirred continuously and samples were withdrawn from time to time. The samples were filtered, and the norelgestromin content of the filtrates was determined by a spectrophotometrical method measuring UV absorption. The spectrophotometrical measurements were performed on a VARIAN Cary 3E spectrophotometer at room temperature.

[2] = Metabolic stability and clearance in human liver microsomes; type: in vitro ADME; conditions: human liver microsomes 1 mg/mL, 5 μM isomer, mean of 3 parallel measurements; for Metabolic stability: F% (metabolic bioavailability)
Experimental: The metabolic stability of norelgestromin E and Z isomers was examined in human liver microsomes. The 2.5 mL incubation mixture contained 6 mM of Na-pyrophosphate, 5 mM of MgCl2, 5 mM of glucose-6-phosphate, 1 U/mL of glucose 6-phosphate dehydrogenase, human liver microsomes (1 mg/mL) and 5 μM of norelgestromin E or Z isomers. The pH was adjusted with 100 mM of Tris-HCl buffer to pH 7.4. The reaction was started by the addition of 5 mM of NADPH. 0.5 mL samples were taken at 0.5 and 20 minutes with immediate precipitation by 0.5 mL of ice-cold methanol. 1 mL precipitated samples were centrifuged for 30 min at 1200 g, and 10 μL of supernatant was injected into the HPLC.
Analytical measurements were conducted using a Merck-Hitachi HPLC system, with UV monitoring at 244 nm. Unchanged material was measured and intrinsic clearance (Clint) and metabolic bioavailability (F%) was calculated with the following equations: dc/dt/c0=Clint, (mL/min×g protein), where dc/dt is the concentration change in a given period of time and c0 is the initial concentration of the norelgestromin isomer (measured in the 0 min sample). Additionally, Clint1×45=Clint2 (mL/min×g liver) and EH=Clin2/Clint2+HBF, where EH is hepatic extraction and HBF is the hepatic blood flow. Finally the metabolic stability: […]
For statistical analysis, Student's t-test was used (Microsoft Excel). The results summarized in Table 2 are calculated as a mean of 3 parallel measurements.

[3] = system: Caco-2 human adenocarcinoma (epithelial) cell line monolayers; assay: Caco-2 permeability measurement; type: in vitro ADME; conditions: Caco-2 monolayer, luminal to basolateral, 50 μM
Experimental: Drug absorption studies were performed with Caco-2 human adenocarcinoma (epithelial) cell line monolayers as an in vitro model. Passive flux characteristics of drugs across the Caco-2 monolayer have shown a correlation with human oral bioavailability.
Caco-2 cells obtained from American Type Culture collection, Rockville, Md., (ATCC) were grown at 37° C. in an atmosphere of 5% CO2 in Dulbecco's modified eagle medium supplemented with 10% heat inactivated fetal bovine serum (GIBCOBRL 11360-039) and antibiotics: penicillin 100 U/mL, and streptomycin 100 μg/mL (GIBCOBRL 15140-031).
Confluent cell monolayers grown in an incubator (at 37° C. with 5% CO2/[…] and 95% humidity) were subcultured every seven days by treatment with 0.25% trypsin containing 1 mM EDTA.
19-23-day-old confluent monolayers of fully differentiated Caco-2 cells were used for transport studies after 6-10 passages.
EHS Cell Attachment Matrix (Promega G5971), Minimum Essential medium Eagle (MEM) with Earle salts, L-Glutamine (GIBCOBRL 41500-091) and Transwell Polycarbonate Membrane (Costar 3401) were used.
Coated Transwells with EHS Cell Attachment Matrix (Promega G5971) and 200000-500000 Caco-2 cells are applied/inserted. […]
The concentrations of the isomers were determined by liquid chromatography with ultraviolet (HPLC/UV) analysis. […]
Dim.: 125−3 mm.+guard. […] Peak quantitation: height; calculation method: EXT-STD.

[4] = Lipophilicity by isocratic reversed-phase HPLC (k′, CHI); type: physicochemical; conditions: for Polarity (k′, HPLC): Nova-Pak C18, acetonitrile mobile phase, 25° C.; for Polarity (CHI index, HPLC): acetonitrile concentration of the mobile phase where log k′=0
Experimental: Lipophilicity was determined by an HPLC method. The HPLC measurements were performed on a Thermo Separation Product (SpectraSystem P4000 and SpectraFOCUS Forward Optical Scanning Detector) HPLC instrument. Data were analyzed by ChromQuest (ver. 2.51) software.
For reversed-phase HPLC measurements, a Nova-Pak C18 column was used (dimension of 4 μm×4.6 mm×250 mm: Waters, Ireland). Detection was performed at λ=280 nm and 25° C. The flow rate of the mobile phase was 1.0 mL/min. HPLC gradient grade acetonitrile was used as organic component (Merck KGaA., Darmstadt, Germany). The retention data of the two isomers were obtained by isocratical analysis of the mobile phases containing different amounts of acetonitrile. The void time (t0) was determined by injection of methanol.
Samples were dissolved in a 1:1 mixture of acetonitrile:water in a concentration of 1 mg/4 mL. The log k′ values were calculated from the mean retention time measured after two subsequent injections of 10 μL volume (log k′=log((tR−t0)/t0)). The log k′ values were represented as a function of the concentration of acetonitrile.
The chromatographical hydrophobicity index (CHI) is a measure of the lipophilic character of the compounds in the reversed phase HPLC measurements. By definition, the CHI parameter is that concentration of acetonitrile of the mobile phase where log k′=0.

[5] = CHI of six steroids (structure-absorption experiment); type: physicochemical; conditions: chromatographical hydrophobicity index, isocratical conditions
Experimental: The beneficial effect of the increasing lipophilicity for the transdermal absorption was proven by carrying out a structure-absorption experiment with six different steroids. In the following publications: Int. J. Pharm. 217:1 (2001), and J. Chromatography 49:631 (1993), it has been shown that the chromatographical hydrophobicity index (CHI) measured under isocratical conditions is a reliable descriptor of lipophilicity. The CHI values of the investigated steroids were determined according to these experiments (Table 3) and correlated with the measured stratum corneum/water distribution coefficients.

## C#C[C@]1(O)CC[C@H]2[C@@H]3CCC4=C/C(=N/O)CC[C@@H]4[C@H]3CC[C@@]21CC (single isomer, unassigned; isomer d) [E-isomer, d-(17α)-13-ethyl-17-hydroxy-18,19-dinorpregn-4-ene-20-yn-3-one-(3E)-oxime]
[1]
  solubility: 3.8 µg/mL (≈ 11.6 µM)
[2]
  Metabolic stability: 86.7 ± 1.67
  Metabolic clearance (mL/min g liver): 0.1815 ± 0.026 mL/min g liver
[3]
  Concentration on the abluminal side (μM in the 30th min): 1.27 ± 0.56 µM
[4]
  Polarity (k′, HPLC): 1.02
  Polarity (CHI index, HPLC): 74

## C#C[C@]1(O)CC[C@H]2[C@@H]3CCC4=C/C(=N\O)CC[C@@H]4[C@H]3CC[C@@]21CC (single isomer, unassigned; isomer d) [Z-isomer, d-(17α)-13-ethyl-17-hydroxy-18,19-dinorpregn-4-ene-20-yn-3-one-(3Z)-oxime]
[1]
  solubility: 12.1 µg/mL (≈ 37 µM)
[2]
  Metabolic stability: 91.9 ± 1.52
  Metabolic clearance (mL/min g liver): 0.1042 ± 0.021 mL/min g liver
[3]
  Concentration on the abluminal side (μM in the 30th min): 1.98 ± 0.78 µM
[4]
  Polarity (k′, HPLC): 1.46
  Polarity (CHI index, HPLC): 70

## C[C@]12CCC(=O)C=C1CC[C@@H]1[C@@H]2CC[C@@]2(C)[C@H]1CC[C@]2(O)C(=O)CO [Cortexolone]
[5]
  CHI: 54.87

## C[C@]12CC[C@@H]3c4ccc(O)cc4CC[C@H]3[C@@H]1C[C@@H](O)[C@@H]2O [Estriol]
[5]
  CHI: 40.45

## C[C@]12CCC(=O)C=C1CC[C@@H]1[C@@H]2[C@@H](O)C[C@@]2(C)[C@H]1CC[C@]2(O)C(=O)CO [Hydrocortisone]
[5]
  CHI: 33.8

## CC(=O)[C@H]1CC[C@H]2[C@@H]3CC=C4C[C@@H](O)CC[C@]4(C)[C@H]3CC[C@]12C [Pregnenolone]
[5]
  CHI: 95.36

## C[C@]12CC[C@H]3[C@@H](CCC4=CC(=O)CC[C@@]43C)[C@@H]1CC[C@@H]2O [Testosterone]
[5]
  CHI: 75.87
